# PubChem BioAssay (NCI)
# “And” between values parts separate entries of the source, which are not always exact repeats. Identical values can stand only once.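 96-well plates; 48 h exposure; 5 concentrations. Endpoints by linear interpolation between flanking doses. Not reached: highest tested concentration assigned. GI50 = concentration required for 50% inhibition of growth. TGI is the concentration that stops growth completely.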
# Legend:
# Assay in all cases: NCI tumour cell line growth inhibition, 48 h
# CCRF-CEM leukemia = system: CCRF-CEM leukemia
# SNB-19 CNS = system: SNB-19 CNS
# OVCAR-8 ovarian = system: OVCAR-8 ovarian
# UO-31 renal = system: UO-31 renal
# HCT-116 colon = system: HCT-116 colon
# RXF 393 renal = system: RXF 393 renal
# ACHN renal = system: ACHN renal
# MCF7 breast = system: MCF7 breast
# NCI/ADR-RES ovarian = system: NCI/ADR-RES ovarian
# U251 CNS = system: U251 CNS
Compound,GI50 (CCRF-CEM leukemia),TGI (CCRF-CEM leukemia),GI50 (SNB-19 CNS),TGI (SNB-19 CNS),GI50 (OVCAR-8 ovarian),TGI (OVCAR-8 ovarian),GI50 (UO-31 renal),TGI (UO-31 renal),GI50 (HCT-116 colon),TGI (HCT-116 colon),GI50 (RXF 393 renal),TGI (RXF 393 renal),GI50 (ACHN renal),TGI (ACHN renal),GI50 (MCF7 breast),TGI (MCF7 breast),GI50 (NCI/ADR-RES ovarian),TGI (NCI/ADR-RES ovarian),GI50 (U251 CNS),TGI (U251 CNS)
CC1/C=C/C=C/C=C/C=C/C=C/C=C/C=C/C(O[C@@H]2O[C@H](C)[C@H](O)[C@@H](O)[C@@H]2N)CC(O)C(C(=O)O)C(O)CC(=O)CC(O)CC(O)CC(O)CC(=O)CCCC(=O)CC(=O)OC1C(C)CC(C)C(O)CC(=O)c1ccc(N)cc1 (stereo not given in full),62.7 nM and 206 nM,141 nM and 489 nM,66 nM and 279 nM,147 nM and 1090 nM,70.1 nM and 347 nM,152 nM and 1230 nM,45.6 nM and 159 nM,88.2 nM and 328 nM,58.1 nM and 219 nM,103 nM and 485 nM,46.9 nM and 156 nM,89.4 nM and 304 nM,57 nM and 180 nM,106 nM and 319 nM,79.7 nM and 422 nM,173 nM and 1590 nM,62.6 nM and 209 nM,125 nM and 474 nM,55.2 nM and 204 nM,99.6 nM and 490 nM
CCN(CC)CCCNc1cccc2c(SCc3ccccc3)ccnc12,179 nM,3000 nM,1830 nM,3890 nM,3410 nM,11500 nM,828 nM,2440 nM,1600 nM,2950 nM,1870 nM,3440 nM,1810 nM,3270 nM,1620 nM,3160 nM,1960 nM,5600 nM,1690 nM,3250 nM
NC(=O)C1=NNc2ccccc2C(=O)N1c1ccccc1,–,> 100000 nM,–,> 100000 nM,–,> 100000 nM,–,> 100000 nM,–,> 100000 nM,–,> 100000 nM,–,> 100000 nM,–,> 100000 nM,–,> 100000 nM,–,> 100000 nM
Cc1cc2cc3cc(C)c(N(C)C)cc3nc2cc1N(C)C,8990 nM,> 100000 nM,3560 nM,> 100000 nM,2830 nM,28100 nM,6000 nM,> 100000 nM,2120 nM,> 100000 nM,7140 nM,31200 nM,4760 nM,> 100000 nM,1760 nM,> 100000 nM,31700 nM,> 100000 nM,1420 nM,> 100000 nM
